Laboratory results from US20080125498A1, “TREATMENT OF NEURODEGENERATIVE DISEASES AND CONDITIONS USING PAR1 ANTAGONISTS” (priority 2001, published 2008).
Square brackets hold non-standard residues; d marks the D form. * marks the point of attachment. Phe(4-guanidino) = N=C(N)Nc1ccc(C[C@H](N)C(=O)O)cc1; Phe(4-F) = N[C@@H](Cc1ccc(F)cc1)C(=O)O; trans‑cinnamoyl = O=C(/C=C/c1ccccc1)*

What was measured:
[1] = tested on: NMDA receptor; experiment: Whole cell patch recording of NMDA-evoked currents in hippocampal slice CA1 pyramidal neurons; format: cell-based, rat
[2] = tested on: NR1 subunit; experiment: NMDA receptor subunit immunoblots of thrombin-treated brain membranes; format: biochemical, rat; settings: 0.1-1 mM SFLLRN
Method: NMDA receptor subunit immunoblots. Human embryonic kidney (HEK) cells were maintained in DMEM supplemented with 0.5 mM glutamine, 1 mM pyruvate, penicillin, streptomycin, and 10% fetal bovine serum in a humidified environment with 5% CO2, and transfected with 1 microgram/ml of NR1 or 1:2 microgram/ml NR1:NR2 cDNA. Cells were washed in ice-cold HEPES buffered saline (HBS), scraped on ice, and membranes isolated by centrifugation at 12,000×g. […] Adult rat brain regions were dissected, frozen in liquid nitrogen, homogenized in ice-cold HEPES buffered saline (HBS), centrifuged, and stored at −20° C. Membranes were resuspended in HBS and treated with thrombin or buffer for 30 min at 37° C. Samples were centrifuged, and the membrane pellet resuspended in 2% sodium dodecylsulphate (SDS), 62.5 mM Tris, 10% glycerol, 5% beta-mercaptoethanol, 0.05% bromophenol blue (pH 6.8); some samples were treated with IOU DNase for 10 min at 37° C. SDS/polyacrylamide gel electrophoresis (SDS/PAGE) and protein blotting to Immobilon-P membranes was performed as described (Lau and Huganir, Differential tyrosine phosphorylation of N-methyl-D-aspartate receptor subunits. J Biol Chem 270: 20036-20041, 1995). Membranes were blocked for 30 min in 0.2 M Tris base, 1.37 M NaCl, pH 7.4, containing 5% nonfat dry milk, and incubated overnight at 4° C. in primary antibodies: NR1 mAb54.1 (gift from Dr. S. Heinemann, Salk Institute, La Jolla Calif.), NR1 alt-C-terminal (Upstate Biotechnology, Lake Placid, N.Y.), NR2A C-terminal (Chemicon, Temecula, Calif.), or NR2B C-terminal (Upstate Biotechnology). Membranes were washed 3×, and incubated with HRP-conjugated goat anti-mouse or goat anti-rabbit antibodies (1:10,000), washed 3×, and developed using enhanced chemiluminescence. The percent of receptor cleaved by thrombin was determined using densitometry.

[3] = tested on: NMDA receptor; experiment: Two electrode voltage clamp of recombinant NMDA receptors with or without PAR1 in Xenopus oocytes; format: cell-based, Xenopus laevis
Method: Expression and recording of NMDA and PAR1 receptor function in Xenopus laevis oocvtes. cRNA was synthesized from linearized template cDNA according to manufacturer specifications (Ambion, Austin, Tex.). Xenopus oocytes were removed from ovaries of female frogs anesthetized with 0.3% 3-aminobenzoic acid ethylester. Groups of 20-30 stage V-VI oocytes were incubated in 292 U/ml Worthington (Freehold, N.J.) Type IV collagenase for 2 hours with slow shaking. The oocytes were rinsed in Barth's solution, and stored at 17° C. in Barth's solution supplemented with 100 microgram/ml gentamycin and 40 microgram/ml streptomycin. Control oocytes were injected with 3 ng NR1 subunit and 7 ng NR2B subunit. Other oocytes were injected with the NMDA receptor subunits plus 3 ng PAR1 cRNA. Two electrode voltage clamp recordings were made 3-7 days post-injection. Oocytes were continually perfused with recording solution (in mM, 90 NaCl, 1 KCl, 10 HEPES, pH 7.4) and held under voltage clamp at −30 to −50 mV with an OC-725B amplifier (Warner Instruments, Hamden, Conn.). Recording solution was supplemented with 1.0 mM CaCl2 during initial impalement of the oocytes and subsequently 0.5 mM BaCl2 during recording to reduce the calcium-activated chloride current endogenous to oocytes. […] NMDA receptor currents were evoked by 20 micromolar glutamate/10 micromolar glycine perfused for 0.5-1 minute. […] Expression of PAR1 protein was verified by a thrombin or SFLLRN-stimulated rapidly desensitizing inward current at −30 mV that reflects the Ca^2+-activated Cl^− current endogenous to the oocyte. To test the ability of thrombin to modify NMDA receptor function in oocytes, recordings of receptor function were made both before and after a 15-60 min incubation in recording solution supplemented with thrombin in Eppendorf tubes at room temperature. […] Oocytes with responses less than 50 nA were not included in the analysis.

[4] = tested on: PAR1; format: cell-based, rat; settings: 3 nM thrombin or 10 micromolar SFLLRN; TTX/APV present; subset of neurons
[5] = tested on: PAR1; experiment: Free intracellular calcium in cultured astrocytes (Fluo-3 AM); format: cell-based, mouse
[6] = tested on: NMDA receptor; experiment: Whole cell patch recording of NMDA-evoked currents in hippocampal CA1 pyramidal cells of wild-type and PAR1-/- mice; format: cell-based, mouse; settings: 100 micromolar APV, wild-type and PAR1-/- mice
[7] = tested on: PAR1; experiment: PI hydrolysis in hippocampal slices; format: cell-based, mouse; settings: pre-incubation with antagonist peptide
Text: PAR1 is a seven transmembrane G-protein coupled receptor that stimulates G-alpha-q to initiate phosphatidyl inositol (PI) hydrolysis. To ensure that PAR1 is functional in regions of the brain that are subject to ischemic damage in the mouse transient focal ischemia model, we tested the ability of several activators of PAR1 to initiate PI hydrolysis (Chung et al., 1997) in the hippocampus and striatum.
Since tPA activates plasminogen to form plasmin, we tested whether exogenously applied tPA could activate endogenous plasminogen in brain slices to form plasmin and activate PAR1.

In the case of SFLLRN [reference compound], the “potentiation of the response to pressure applied NMDA plus glycine” value ([1]; 30 micromolar SFLLRN, n=9) is reported as 1.76±0.19 fold, the “stimulation of NR1 cleavage” value [2] is reported as “did not stimulate cleavage” and the “potentiation of NMDA receptor current after SFLLRN stimulation of PAR1” value ([3]; NR1-1a/NR2B plus PAR1, 10-30 micromolar SFLLRN, n=9) is reported as 1.41±0.11 fold. The “SFLLRN potentiation of NR1-1a/NR2A receptors” value ([3]; oocytes with PAR1, 10-30 micromolar SFLLRN, n=6) was 1.85±0.1 fold and the “Fluo-3 fluorescence in soma and dendrites” value [4] was “robust increase”.
In the case of “bisindolylmaleimide [reference compound]”, the “potentiation of NMDA receptor currents by thrombin in presence of BIS” value ([1]; BIS 10 microM in ACSF, 30 nM (3 U/ml) thrombin, n=10) is reported as 1.20±0.13 fold and the “NMDA responses during preapplication of BIS” value ([1]; BIS alone) is reported as “unchanged”.
`Nc1ncnc2c1ncn2[C@@H]1O[C@H](COP(=O)(O)OP(=O)(O)OP(=O)(O)O)[C@@H](O)[C@H]1O` [ATP] was tested, and the free intracellular calcium ([5]; cultured astrocytes from PAR1-/- knockout mice) was “increases free intracellular calcium” and the free intracellular calcium ([5]; cultured astrocytes from wild type mice) was “increases free intracellular calcium”.
`N[C@H](CCCP(=O)(O)O)C(=O)O` [APV, D-2-amino-5-phosphonovaleric acid, reference compound] was tested, and the “block of responses to NMDA/glycine” value ([1]; 100 micromolar APV) was “blocked the response” and the “block of NMDA receptor response following thrombin treatment” value [6] was “abolished”.
For “N-trans-cinnamoyl-p-fluoroPhe-p-guanidinoPhe-Leu-Arg-Arg-NH2 ({trans‑cinnamoyl}-[Phe(4-F)][Phe(4-guanidino)]LRR-NH2; SMILES CC(C)C[C@H](NC(=O)[C@H](Cc1ccc(NC(=N)N)cc1)NC(=O)[C@H](Cc1ccc(F)cc1)NC(=O)/C=C/c1ccccc1)C(=O)N[C@@H](CCCNC(=N)N)C(=O)N[C@@H](CCCNC(=N)N)C(N)=O) [PAR1 antagonist peptide, reference compound]”, the “inhibition of PI hydrolysis produced by thrombin and plasmin” value [7] was “inhibited PI hydrolysis”.
